Source: patent US20100166846A1 (priority 2008, published 2010)
Like-named read-outs stand apart in the source and are kept apart here.

Columns and labels:
[1] = rat liver
Source text: The tissue from the control animals (water) served as the 100% of the toxin remaining in the tissue. The animals receiving: • a.

[2] = humans, reference (7); cited from earlier work

In the case of `N[C@@H](CCC(=O)N[C@@H](CS)C(=O)NCC(=O)O)C(=O)O` [Plain glutathione, glutathione], the removal of toxin ([1]; CO-60, intravenous administration) is listed as 70%, the removal of toxin ([1]; CO-60, oral administration) is listed as 10% and the “absorption after oral ingestion” value [2] is listed as “not absorbed”.
For `COc1ccccc1OCC(O)COC(N)=O` (centres unmarked) [methocarbolmol], the “tolerability in the animal” value (canine with myoclonus, initial symptom management) was “neither of which was tolerated”.
With `CN1C(=O)CN=C(c2ccccc2)c2cc(Cl)ccc21` [valium] the “tolerability in the animal” value (dog, in vivo) was “neither of which was tolerated”.
